Experimental findings from US5100876A, “16-decarboxy-16-hydroxy derivatives of amphotericin B” (Beecham Group p.l.c., priority 1988, dated 1992) are described below.

Each structure is given as a SMILES string. In brackets after ≈: the same amount, converted by molar mass.

The test system of one assay is Candida albicans 73/079. The experiment in a line: Minimum Inhibitory Concentration (MIC) by broth dilution in microtitre tray. The format is cell-based. Conditions: inoculum 10^5 cells/ml, 37° C. How it is done: (§1) The Minimum Inhibitory Concentration (MIC) was determined by diluting the test compound in a broth medium in a microtitre tray. The organisms, which had been grown previously in a broth medium, were diluted and added to the wells to provide a final inoculum of approximately 10^5 colony-formingunits per well. The trays were incubated at 37° C. and the turbidity of each well noted at intervals. The MIC was taken as the lowest concentration (in μg/ml) which prevented significant growth. |Minimum Inhibitory Concentration (μg/ml) |(determined after 2 and 3 days incubation) | *Inoculum 10^5 cells/ml | YNB: Yeast Nitrogen Base Broth | SAB: Sabouraud's Dextrose Broth.
A general note: Dilution methods test growth across graded concentrations, often in twofold steps.

Assay [1] relates to Candida parapsilosis 937 A. Described as above. The class given is cell-based. The note with it: inoculum 10^5 cells/ml, 37° C. As for the experimental part: as §1
The mark [2] stands for this setting: 48 h, day 2, YNB (Yeast Nitrogen Base Broth).
Setting [3] is: 72 h, day 3, YNB (Yeast Nitrogen Base Broth).

Broadly, the MIC is the lowest concentration that inhibits growth of the organism. A higher MIC goes with a less susceptible organism. Consider `C[C@@H]1[C@H](O)[C@@H](C)/C=C/C=C/C=C/C=C/C=C/C=C/C=C/[C@H](O[C@@H]2O[C@H](C)[C@@H](O)[C@H](N)[C@@H]2O)C[C@@H]2O[C@](O)(C[C@@H](O)C[C@@H](O)[C@H](O)CC[C@@H](O)C[C@@H](O)CC(=O)O[C@H]1C)C[C@H](O)[C@H]2CO` [Example 4, 16-Decarboxy-16-hydroxymethylamohotericin B], for which the minimum inhibitory concentration (MIC) in the assay on Candida albicans 73/079 (setting [2]) amounted to 1 µg/mL (≈ 1.1 µM); in the assay on Candida albicans 73/079 (setting [3]), 2 µg/mL (≈ 2.2 µM); in the assay on Candida albicans 73/079 (Candida albicans, 73/079, 48 h, day 2, SAB (Sabouraud's Dextrose Broth)), 1 µg/mL (≈ 1.1 µM); against Candida albicans 73/079 (Candida albicans, 73/079, 72 h, day 3, SAB (Sabouraud's Dextrose Broth)), 1 µg/mL (≈ 1.1 µM); in assay [1] (937A, 48 h, day 2, SAB (Sabouraud's Dextrose Broth)), 1 µg/mL (≈ 1.1 µM); in assay [1] (937A, 72 h, day 3, SAB (Sabouraud's Dextrose Broth)), 2 µg/mL (≈ 2.2 µM). Also, the MIC in assay [1] (setting [2]) and in assay [1] (setting [3]) was 8 µg/mL (≈ 8.79 µM) each time.
